The values below come from ChEMBL document CHEMBL1201862, “PubChem BioAssay data set” (2004).

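Step 1: Grow cells in 96-well plates. Step 2: Expose to compound for 48 hours at 5 concentrations. Step 3: Interpolate endpoints linearly; if unreached, use highest concentration. Here, GI50 denotes the concentration required for 50% inhibition of growth.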 The source made the active and inactive calls. No stated cut-off is given here; in the data, active = GI50 up to about 1.1 µM and inactive = higher.

Among the test systems are HOP-18; DMS-114; DMS-273; KM-20L2; DLD-1; SNB-78; XF498; RXF 631; BT-549.
Holding throughout (experiment): DTP human tumour cell line panel, 48 h

For orientation: GI50 means the concentration giving 50% growth inhibition. For `CN1CCc2c1nc(-c1cccnc1)c1c2N(C)CC1`, the GI50 in the assay on HOP-18 is 60.4 µM (inactive); in the assay with DMS-114, > 100 µM (inactive); with DMS-273, > 100 µM (inactive); in the assay on KM-20L2, 97.1 µM (inactive); with DLD-1, > 100 µM (inactive); in the assay on SNB-78 it was > 100 µM (inactive). For the same compound, the GI50 with XF498 and in the assay with RXF 631 was > 100 µM (inactive) in each case.
Turning to `Cc1ccccc1C1=C(C(=O)Nc2ccc(Cl)c(Cl)c2)NC(=S)NC1N` (centres undefined), the GI50 in the assay with HOP-18, with DMS-114, with DMS-273, with KM-20L2, with DLD-1 and in the assay on SNB-78 was > 100 µM (inactive) throughout. The GI50 with XF498 and with RXF 631 was > 100 µM (inactive) in each case.
Consider `Cc1ccccc1C1=[N+]([O-])c2ccccc2C1=O`, for which the GI50 with HOP-18 is 19.6 µM (inactive); in the assay with DMS-114, 13.4 µM (inactive); with KM-20L2 it was 17.9 µM (inactive); in the assay on DLD-1 it was 17.3 µM (inactive); in the assay with XF498, 17.4 µM (inactive); in the assay on RXF 631 it was 23.6 µM (inactive).
As for `C/C=C1\CN2CCc3c([nH]c4ccccc34)C2CC1CCO` (centres undefined), the GI50 in the assay on HOP-18, in the assay on DMS-114, in the assay on DMS-273, with KM-20L2, with DLD-1 and with SNB-78 was > 100 µM (inactive) in each case. Also, the GI50 with XF498 and in the assay with RXF 631 was > 100 µM (inactive) throughout.
Consider `C=CCC1(CN(C)C)CC/C(=C\c2cc(OC)c(OC)c(OC)c2)C1=O` (centres undefined), for which the GI50 is 22.3 µM (inactive) in the assay on HOP-18; 18.6 µM (inactive) in the assay on DMS-114; > 10 µM (inactive) in the assay on DMS-273; 22 µM (inactive) with KM-20L2; 20 µM (inactive) with DLD-1; 28.1 µM (inactive) in the assay with SNB-78. The GI50 with RXF 631 was 25.6 µM (inactive).
With `Cc1oc2c(C)c(O)c3c(c2c1C1(C)OCCO1)C(=O)C=C(Cl)C3=O`, the GI50 is > 100 µM (inactive) in the assay on DMS-273; > 100 µM (inactive) in the assay on KM-20L2; > 100 µM (inactive) in the assay on SNB-78; 33.3 µM (inactive) in the assay on XF498; > 100 µM (inactive) in the assay with RXF 631.
For `O=c1c(Cc2ccccc2)c(O)cc2n1CCC2`, the GI50 with HOP-18, in the assay with DMS-114, in the assay on KM-20L2, in the assay on DLD-1, in the assay with SNB-78 and in the assay with XF498 was > 100 µM (inactive) in each case. Also, the GI50 in the assay on RXF 631 was > 100 µM (inactive).
As to `N#CC(C#N)=Cc1ccc(CP(=O)(O)O)cc1`, the GI50 in the assay with HOP-18, in the assay on DMS-114, with DMS-273, with KM-20L2, in the assay with DLD-1 and in the assay on SNB-78 was > 100 µM (inactive) throughout. Further, the GI50 with XF498 and in the assay on RXF 631 was > 100 µM (inactive) in each case.
For the compound `O=C(c1ccccc1)c1c(C(=O)c2ccccc2)c(-c2ccccc2)c2c(-c3ccccc3)sc(-c3ccccc3)c2c1-c1ccccc1`, the GI50 in the assay with DMS-114, with DMS-273, in the assay with KM-20L2, with DLD-1, in the assay on SNB-78 and in the assay with XF498 was > 100 µM (inactive) throughout. For the same compound, in the assay with RXF 631, the GI50 is > 100 µM (inactive).
Turning to `Oc1cc(O)c(Oc2cccc(O)c2O)c(O)c1`, the GI50 in the assay with HOP-18 is > 100 µM (inactive); in the assay with DMS-114, 57.7 µM (inactive); in the assay with DMS-273 it was > 100 µM (inactive); in the assay on SNB-78 it was > 100 µM (inactive); in the assay on XF498 it was 29.5 µM (inactive); in the assay on RXF 631, > 100 µM (inactive).
Regarding `Cc1ccc2nc3c(C)c(Cl)c(=O)cc-3sc2c1`, the GI50 in the assay with HOP-18 is 19.7 µM (inactive); in the assay with DMS-114 it was 2.97 µM (inactive); in the assay with BT-549, 20.9 µM (inactive); in the assay with DMS-273, 22.4 µM (inactive); in the assay on KM-20L2, 78 µM (inactive); in the assay on DLD-1 it was 19.2 µM (inactive). Moreover, the GI50 with SNB-78 is 32.2 µM (inactive); with XF498, 10 µM (inactive); in the assay on RXF 631 it was 24.3 µM (inactive).
In the case of `O=C/C(=C(/Cl)c1ccc(O)cc1)c1ccccc1`, the GI50 in the assay with HOP-18 is 20.2 µM (inactive); in the assay with DMS-114 it was 12.3 µM (inactive); in the assay on DMS-273, 18.8 µM (inactive); with KM-20L2, 31 µM (inactive); in the assay on DLD-1, 23.5 µM (inactive); in the assay with SNB-78 it was 32.7 µM (inactive). In addition, the results for the GI50 in the assay with XF498 and with RXF 631 were 18.9 µM (inactive) and 24.8 µM (inactive), respectively.
For the compound `Cc1cccc(NC2=NC(=O)C(CC(=O)Nc3ccccc3Cl)S2)c1` (centres undefined), the GI50 in the assay with DMS-114 is > 100 µM (inactive); in the assay on DMS-273 it was > 100 µM (inactive); in the assay on KM-20L2, > 100 µM (inactive); with DLD-1, > 100 µM (inactive); in the assay on SNB-78, > 100 µM (inactive); with XF498, 95.1 µM (inactive). For the same compound, the GI50 in the assay on RXF 631 was > 100 µM (inactive).
Turning to `Cc1ccccc1NC(=O)CC(=O)NNCC(=O)Nc1nnc(-c2ccccc2)s1`, the GI50 is 29 µM (inactive) with HOP-18; 43.6 µM (inactive) in the assay on DMS-114; 73.6 µM (inactive) in the assay on DMS-273; > 100 µM (inactive) in the assay on KM-20L2; 98.9 µM (inactive) in the assay with DLD-1; > 100 µM (inactive) with SNB-78. The values for the GI50 with XF498 and in the assay on RXF 631 were 31.9 µM (inactive) and > 100 µM (inactive), respectively.
Turning to `CCOC(=O)C1=C(Nc2cccc3ccccc23)OC/C1=N\NC(=O)c1ccccc1O`, the GI50 is 11.1 µM (inactive) in the assay on HOP-18; 11.4 µM (inactive) with DMS-114; 9.59 µM (inactive) in the assay with DMS-273; 29 µM (inactive) in the assay on KM-20L2; 17.6 µM (inactive) with DLD-1; 8.04 µM (inactive) in the assay on XF498. Further, in the assay on RXF 631, the GI50 was 21.2 µM (inactive).
With `CC1=C(C(=O)Nc2ccccc2C)C(c2ccc(Cl)cc2)C(C(=O)Nc2ccccc2C)=C(C)N1`, the GI50 was > 100 µM (inactive) in the assay on HOP-18; > 100 µM (inactive) with DMS-114; > 100 µM (inactive) in the assay on DLD-1; > 100 µM (inactive) in the assay with SNB-78; 81.3 µM (inactive) in the assay with XF498; > 100 µM (inactive) in the assay with RXF 631.
Consider `CC1[C@@]2(CCC(C)(C)O2)O[C@@H]2C=C3C4CCC5Cc6nc7c(nc6C[C@@]5(C)C4C[C@H](O)[C@@]3(C)[C@]12O)CC1CCC2C3=C[C@H]4O[C@@]5(O[C@@](C)(CO)C[C@@H]5O)C(C)[C@@]4(O)[C@]3(C)[C@@H](O)CC2[C@]1(C)C7` (some centres undefined), for which the GI50 is 0.0268 µM (active) with DMS-114; 0.0123 µM (active) in the assay with DMS-273; 0.0509 µM (active) in the assay on KM-20L2; 0.753 µM (active) in the assay with DLD-1; 0.043 µM (active) in the assay on SNB-78; 0.322 µM (active) with XF498. For the same compound, in the assay with RXF 631, the GI50 is 0.0198 µM (active).
Regarding `COc1ccccc1/C=C\c1cc(OC)c(OC)c(OC)c1`, the GI50 is > 100 µM (inactive) in the assay with HOP-18; 6.41 µM (inactive) with DMS-114; 4.62 µM (inactive) with DMS-273; 23.2 µM (inactive) in the assay with DLD-1; 28.3 µM (inactive) in the assay on SNB-78; 9.64 µM (inactive) in the assay with XF498. The GI50 in the assay on RXF 631 was 15.8 µM (inactive).
